Data as given in US20130338061A1, “Salts and Polymorphs of Sulfamide NS3 Inhibitors” (priority 2010, published 2013).

Tests used:
[1] = system: subgenomic genotype 1b HCV replicon cell line (Huh-Luc/neo-ET); assay: Luciferase-based HCV replicon assay; format: cell-based; conditions: Hepatitis C virus; Huh-Luc/neo-ET replicon cells, 48-h treatment, 10% FBS; read-out: IC50 in replicon assay (luciferase activity reduced by 50%)
Protocol: The antiviral activity and cytotoxicity of Compound X is determined using a subgenomic genotype 1b HCV replicon cell line (Huh-Luc/neo-ET) containing a luciferase reporter gene, the expression of which is under the control of HCV RNA replication and translation. Briefly, 5,000 replicon cells are seeded in each well of 96-well tissue culture plates and are allowed to attach in complete culture media without G418 overnight. On the next day, the culture media are replaced with media containing serially diluted Compound X in the presence of 10% FBS and 0.5% DMSO. After a 48-h treatment with the compound, the remaining luciferase activities in the cells are determined using BriteLite reagent (Perkin Elmer, Wellesley, Mass.) with a LMaxII plate reader (Molecular Probe, Invitrogen). Each data point represents the average of four replicates in cell culture. IC50 is the concentration of the compound at which the luciferase activity in the replicon cells is reduced by 50%. The cytotoxicity of the compound is evaluated using an MTS-based cell viability assay.

[2] = target: HCV NS3-4A serine protease (full-length NS3-4A protein, genotype 1a, strain HCV-1) (Hepatitis C virus genotype 1a, UniProt P26664); assay: HCV NS3-4A protease assay; format: biochemical; conditions: fluorogenic peptide substrate
Chain of HCV NS3-4A serine protease (full-length NS3-4A protein, genotype 1a, strain HCV-1) (P26664 1658-1711): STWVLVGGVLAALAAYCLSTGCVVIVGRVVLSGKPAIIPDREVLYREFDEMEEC
Chain of HCV NS3-4A serine protease (full-length NS3-4A protein, genotype 1a, strain HCV-1) (P26664 1027-1657): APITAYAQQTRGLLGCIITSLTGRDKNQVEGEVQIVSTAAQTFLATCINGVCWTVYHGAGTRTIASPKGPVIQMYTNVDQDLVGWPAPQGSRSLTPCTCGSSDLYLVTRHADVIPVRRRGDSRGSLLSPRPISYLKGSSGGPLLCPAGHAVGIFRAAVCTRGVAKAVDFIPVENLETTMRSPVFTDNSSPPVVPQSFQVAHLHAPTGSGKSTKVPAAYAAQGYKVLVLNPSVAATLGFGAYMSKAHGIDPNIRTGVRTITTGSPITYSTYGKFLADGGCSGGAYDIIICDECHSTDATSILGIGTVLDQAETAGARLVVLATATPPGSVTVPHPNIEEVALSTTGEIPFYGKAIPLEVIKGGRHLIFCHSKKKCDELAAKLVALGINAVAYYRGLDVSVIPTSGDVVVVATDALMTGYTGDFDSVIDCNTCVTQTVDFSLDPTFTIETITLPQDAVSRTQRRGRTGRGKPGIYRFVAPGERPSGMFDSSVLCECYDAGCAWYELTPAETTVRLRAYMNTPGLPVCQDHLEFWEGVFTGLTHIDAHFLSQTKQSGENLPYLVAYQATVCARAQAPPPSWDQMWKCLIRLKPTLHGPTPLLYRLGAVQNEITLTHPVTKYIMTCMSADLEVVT
Protocol: The inhibitory activity of Compound X against HCV NS3-4A serine protease is determined in a homogenous assay using the full-length NS3-4A protein (genotype 1a, strain HCV-1) and a commercially available internally-quenched fluorogenic peptide substrate as described by Taliani, M., et al. 1996 Anal. Biochem. 240:60-67, which is incorporated by reference in its entirety.

CC[C@@H]1C[C@]1(NC(=O)[C@@H]1C[C@@]2(CN1C(=O)[C@@H](NC(=O)[C@@H](NC(=O)[C@@H]1CCCCN1C(C)C)C1CCCCC1)C(C)(C)C)C(C)(C)C21CCC1)C(=O)NS(=O)(=O)N1CCCC1 [Compound X, (5R,8S)-7-[(2S)-2-{[(2S)-2-cyclohexyl-2-({[(2S)-1-isopropylpiperidin-2-yl]carbonyl}amino)acetyl]amino}-3,3-dimethylbutanoyl]-N-{(1R,2R)-2-ethyl-1-[(pyrrolidin-1-ylsulfonyl)carbamoyl]cyclopropyl}-10,10-dimethyl-7-azadispiro[3.0.4.1]decane-8-carboxamide]
IC50 [1]: < 100 nM
IC50 [2]: 4.5 nM
